Test results from PubChem BioAssay AID1963847 (Molecular Pharmacology Branch, DTP, NCI, 2024).

System: 415267-285-R-J2-PDC complex spheroid viability
Test: Anticancer human tumor 415267-285-R-J2-PDC patient-derived breast carcinoma cell line growth inhibition [POLQ]
Conditions: for IC50: curve of first compound; for viability, T/C: stronger effect = lower value; active = viability on the fitted dose curve at most 10% of control; inactive = the rest
Method in brief: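 Three-cell-type spheroids modelling solid tumor plus stroma served as the readout system; POL inhibitors were tested individually and in combination, concentration ranges set by clinical Cmax where known.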

[1] = second compound 0.0316 µM, first compound 0.0316 µM
[2] = second compound 0.0316 µM, first compound 0.1 µM
[3] = second compound 0.0316 µM, first compound 0.316 µM
[4] = second compound 0.0316 µM, first compound 1 µM
[5] = second compound 0.1 µM, first compound 0.0316 µM
[6] = second compound 0.1 µM, first compound 0.1 µM
[7] = second compound 0.1 µM, first compound 0.316 µM
[8] = second compound 0.1 µM, first compound 1 µM
[9] = second compound 0.316 µM, first compound 0.0316 µM
[10] = second compound 0.316 µM, first compound 0.1 µM
[11] = second compound 0.316 µM, first compound 0.316 µM
[12] = second compound 0.316 µM, first compound 1 µM
[13] = second compound 1 µM, first compound 0.0316 µM
[14] = second compound 1 µM, first compound 0.1 µM
[15] = second compound 1 µM, first compound 0.316 µM
[16] = second compound 1 µM, first compound 1 µM
[17] = second compound 3.16 µM, first compound 0.0316 µM
[18] = second compound 3.16 µM, first compound 0.1 µM
[19] = second compound 3.16 µM, first compound 0.316 µM
[20] = second compound 3.16 µM, first compound 1 µM
[21] = second compound 10 µM, first compound 0.0316 µM
[22] = second compound 10 µM, first compound 0.1 µM
[23] = second compound 10 µM, first compound 0.316 µM
[24] = second compound 10 µM, first compound 1 µM
[25] = second compound 0.0316 µM, first compound 3.16 µM
[26] = second compound 0.0316 µM, first compound 10 µM
[27] = second compound 0.1 µM, first compound 3.16 µM
[28] = second compound 0.1 µM, first compound 10 µM
[29] = second compound 0.316 µM, first compound 3.16 µM
[30] = second compound 0.316 µM, first compound 10 µM
[31] = second compound 1 µM, first compound 3.16 µM
[32] = second compound 1 µM, first compound 10 µM
[33] = second compound 3.16 µM, first compound 3.16 µM
[34] = second compound 3.16 µM, first compound 10 µM
[35] = second compound 10 µM, first compound 3.16 µM
[36] = second compound 10 µM, first compound 10 µM
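Also: spheroids exposed to compounds for one week before readout.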
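For viability, T/C in this document: luminescence used as stand-in measure of viable cells; 100% = DMSO vehicle control viability.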

C=CCn1c(=O)c2cnc(Nc3ccc(N4CCN(C)CC4)cc3)nc2n1-c1cccc(C(C)(C)O)n1 + Nc1ccc(C#CCN(C(=O)Cc2ncc(C(F)(F)F)cc2C(F)(F)F)c2ccc(F)cc2)nn1
active: viability, T/C [4] 5.9% | viability, T/C [8] 6.38% | viability, T/C [12] 5.51% | viability, T/C [16] 4.94% | viability, T/C [20] 7.32% | viability, T/C [24] 5.62%
0.447 µM: IC50 (second compound 0.0316 µM)
0.318 µM: IC50 (second compound 10 µM)
0.427 µM: IC50 (second compound 0.316 µM)
0.404 µM: IC50 (second compound 0.1 µM)
0.396 µM: IC50 (second compound 1 µM)
inactive: viability, T/C (second compound 0.0316 µM, first compound 0.00316 µM) 95.1% | viability, T/C (second compound 0.0316 µM, first compound 0.01 µM) 102% | viability, T/C [1] 94.8% | viability, T/C [2] 98.2% | viability, T/C [3] 69% | viability, T/C (second compound 0.1 µM, first compound 0.00316 µM) 107% | viability, T/C (second compound 0.1 µM, first compound 0.01 µM) 104% | viability, T/C [5] 102% | viability, T/C [6] 87.6% | viability, T/C [7] 62.2% | viability, T/C (second compound 0.316 µM, first compound 0.00316 µM) 108% | viability, T/C (second compound 0.316 µM, first compound 0.01 µM) 108% | viability, T/C [9] 86.9% | viability, T/C [10] 96.3% | viability, T/C [11] 65.5% | viability, T/C (second compound 1 µM, first compound 0.00316 µM) 104% | viability, T/C (second compound 1 µM, first compound 0.01 µM) 95% | viability, T/C [13] 101% | viability, T/C [14] 87% | viability, T/C [15] 61.1% | viability, T/C (second compound 3.16 µM, first compound 0.00316 µM) 106% | viability, T/C (second compound 3.16 µM, first compound 0.01 µM) 93.1% | viability, T/C [17] 95.3% | viability, T/C [18] 92.5% | viability, T/C [19] 53% | viability, T/C (second compound 10 µM, first compound 0.00316 µM) 94.3% | viability, T/C (second compound 10 µM, first compound 0.01 µM) 95.5% | viability, T/C [21] 107% | viability, T/C [22] 91.7% | viability, T/C [23] 50.3%
0.342 µM: IC50 (second compound 3.16 µM)

O=C(c1cc(Cc2n[nH]c(=O)c3ccccc23)ccc1F)N1CCN(C(=O)C2CC2)CC1 + Cc1cccc(N(C)C(=O)C2C(O)CCN2c2nc(C)cc(C(F)(F)F)c2C#N)c1
inactive: viability, T/C [1] 87.6% | viability, T/C [2] 101% | viability, T/C [3] 102% | viability, T/C [4] 99.7% | viability, T/C [25] 103% | viability, T/C [26] 82.9% | viability, T/C [5] 94% | viability, T/C [6] 96.2% | viability, T/C [7] 96.5% | viability, T/C [8] 106% | viability, T/C [27] 91.2% | viability, T/C [28] 78.3% | viability, T/C [9] 95.3% | viability, T/C [10] 98.3% | viability, T/C [11] 99.4% | viability, T/C [12] 111% | viability, T/C [29] 95.8% | viability, T/C [30] 86.6% | viability, T/C [13] 104% | viability, T/C [14] 95.1% | viability, T/C [15] 95.8% | viability, T/C [16] 98.2% | viability, T/C [31] 92.9% | viability, T/C [32] 76.8% | viability, T/C [17] 99.3% | viability, T/C [18] 98.6% | viability, T/C [19] 88.5% | viability, T/C [20] 95.9% | viability, T/C [33] 87.7% | viability, T/C [34] 72.9% | viability, T/C [21] 100% | viability, T/C [22] 85.1% | viability, T/C [23] 87.7% | viability, T/C [24] 98% | viability, T/C [35] 90% | viability, T/C [36] 68%
> 10 µM: IC50 (second compound 0.0316 µM) | IC50 (second compound 0.1 µM) | IC50 (second compound 0.316 µM) | IC50 (second compound 1 µM) | IC50 (second compound 3.16 µM) | IC50 (second compound 10 µM)

Nc1ccn(C2OC(CO)C(O)C2(F)F)c(=O)n1 (stereo not drawn) + COC1C(OC(N)=O)C(O)C(Oc2ccc3c(O)c(NC(=O)c4ccc(O)c(CC=C(C)C)c4)c(=O)oc3c2C)OC1(C)C
< 0.0316 µM: IC50 (second compound 0.0316 µM) | IC50 (second compound 0.1 µM) | IC50 (second compound 0.316 µM) | IC50 (second compound 1 µM) | IC50 (second compound 3.16 µM) | IC50 (second compound 10 µM)
inactive: viability, T/C [13] 31.1% | viability, T/C [21] 24.7%
active: viability, T/C [1] 6.95% | viability, T/C [2] 7.41% | viability, T/C [3] 5.11% | viability, T/C [4] 5.97% | viability, T/C [25] 5.96% | viability, T/C [26] 7.99% | viability, T/C [5] 7.63% | viability, T/C [6] 6.2% | viability, T/C [7] 4.86% | viability, T/C [8] 5.57% | viability, T/C [27] 5.43% | viability, T/C [28] 5.04% | viability, T/C [9] 6.64% | viability, T/C [10] 8.84% | viability, T/C [11] 5.17% | viability, T/C [12] 4.85% | viability, T/C [29] 6.19% | viability, T/C [30] 4.45% | viability, T/C [14] 5.76% | viability, T/C [15] 5.6% | viability, T/C [16] 5.77% | viability, T/C [31] 5.83% | viability, T/C [32] 5.65% | viability, T/C [17] 7.56% | viability, T/C [18] 6.05% | viability, T/C [19] 5.39% | viability, T/C [20] 6.49% | viability, T/C [33] 5.4% | viability, T/C [34] 5.83% | viability, T/C [22] 5.53% | viability, T/C [23] 6.82% | viability, T/C [24] 6.71% | viability, T/C [35] 7.68% | viability, T/C [36] 5.33%

COc1ccc([C@@H](O)c2cc(-c3ncnc4cc(N5CCOCC5)ccc34)c(F)cc2Cl)nn1 + COC1C(OC(N)=O)C(O)C(Oc2ccc3c(O)c(NC(=O)c4ccc(O)c(CC=C(C)C)c4)c(=O)oc3c2C)OC1(C)C
8.63 µM: IC50 (second compound 0.0316 µM)
9.75 µM: IC50 (second compound 10 µM)
8.03 µM: IC50 (second compound 0.1 µM)
inactive: viability, T/C [1] 104% | viability, T/C [2] 92.5% | viability, T/C [3] 97.9% | viability, T/C [4] 89% | viability, T/C [25] 78.4% | viability, T/C [26] 45.3% | viability, T/C [5] 95.3% | viability, T/C [6] 104% | viability, T/C [7] 97.9% | viability, T/C [8] 106% | viability, T/C [27] 99.5% | viability, T/C [28] 38.3% | viability, T/C [9] 101% | viability, T/C [10] 98% | viability, T/C [11] 101% | viability, T/C [12] 87.7% | viability, T/C [29] 77.9% | viability, T/C [30] 38.3% | viability, T/C [13] 94.3% | viability, T/C [14] 97.2% | viability, T/C [15] 97.1% | viability, T/C [16] 100% | viability, T/C [31] 76.2% | viability, T/C [32] 48% | viability, T/C [17] 105% | viability, T/C [18] 108% | viability, T/C [19] 97.1% | viability, T/C [20] 103% | viability, T/C [33] 79.7% | viability, T/C [34] 43.5% | viability, T/C [21] 102% | viability, T/C [22] 97.8% | viability, T/C [23] 98% | viability, T/C [24] 96.3% | viability, T/C [35] 90.9% | viability, T/C [36] 48.8%
9.18 µM: IC50 (second compound 1 µM)
7.09 µM: IC50 (second compound 0.316 µM)
8.15 µM: IC50 (second compound 3.16 µM)
